ChEMBL document CHEMBL1140868, “Current perspective of TACE inhibitors: a review” (Bioorg Med Chem, 2009)

Assays:
[1] = molecular target: T1, Disintegrin and metalloproteinase domain-containing protein 17 (Homo sapiens, UniProt P78536); experiment: Inhibition of TACE by cell free assay
[2] = Selectivity for TACE over MMP1
[3] = molecular target: T1, Disintegrin and metalloproteinase domain-containing protein 17; experiment: Inhibition of TACE
Mus musculus [4] = experiment: Inhibition of TNFalpha production in mouse at 50 mg/kg, po after 1 hr; assay type: functional
[5] = Inhibition of TNFalpha production in whole blood; assay type: functional, tissue-based
[6] = Selectivity for TACE over MMP9
[7] = Selectivity for TACE over MMP2
Collagenase 3 = Collagenase 3 (Homo sapiens, UniProt P45452); experiment: Inhibition of MMP13
Mus musculus [8] = experiment: Inhibition of LPS-induced TNFalpha production in po dosed mouse; assay type: functional
[9] = Oral bioavailability in rat; assay type: ADME, organism-based; details: in vivo
[10] = Oral bioavailability in dog; assay type: ADME, organism-based, Canis lupus familiaris; details: in vivo
[11] = Half life in human; assay type: ADME, organism-based; details: in vivo
[12] = molecular target: T1, Disintegrin and metalloproteinase domain-containing protein 17; experiment: Inhibition of TACE in human PBMC
Interstitial collagenase = molecular target: T2, Interstitial collagenase (Homo sapiens, UniProt P03956); experiment: Inhibition of MMP1
T2 sequence (P03956 whole entry): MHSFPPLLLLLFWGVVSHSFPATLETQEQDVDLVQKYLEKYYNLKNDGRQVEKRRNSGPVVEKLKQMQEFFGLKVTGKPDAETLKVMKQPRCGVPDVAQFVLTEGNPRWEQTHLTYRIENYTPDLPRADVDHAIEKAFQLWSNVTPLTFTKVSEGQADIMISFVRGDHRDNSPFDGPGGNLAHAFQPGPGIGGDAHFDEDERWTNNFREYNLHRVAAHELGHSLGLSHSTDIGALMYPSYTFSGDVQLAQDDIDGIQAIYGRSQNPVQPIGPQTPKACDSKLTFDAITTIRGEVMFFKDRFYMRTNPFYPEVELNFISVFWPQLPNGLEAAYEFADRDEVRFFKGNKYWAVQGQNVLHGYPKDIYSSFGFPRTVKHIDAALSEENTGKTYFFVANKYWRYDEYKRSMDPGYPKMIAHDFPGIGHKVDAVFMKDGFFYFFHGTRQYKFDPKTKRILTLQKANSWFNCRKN

THP-1 = experiment: Inhibition of LPS-induced TNFalpha production in human THP1 cells; assay type: functional, cell-based
[13] = Fraction unbound in human serum; assay type: ADME, cell-free
[14] = Bioavailability in rat; assay type: ADME, organism-based; details: in vivo
[15] = molecular target: 72 kDa type IV collagenase (Homo sapiens, UniProt P08253); experiment: Inhibition of MMP2
[16] = molecular target: Matrix metalloproteinase-9 (Homo sapiens, UniProt P14780); experiment: Inhibition of MMP9
Rattus norvegicus = experiment: Inhibition of LPS-induced TNFalpha production in po dosed rat plasma; assay type: functional
[17] = molecular target: Disintegrin and metalloproteinase domain-containing protein 17 (Sus scrofa, UniProt O77636); experiment: Inhibition of pig TACE
[18] = Half life in rat LPS model; assay type: ADME, organism-based; details: in vivo
Mus musculus [19] = experiment: Inhibition of TNFalpha production in mouse at 100 mg/kg, po after 1 hr; assay type: functional
Blood = experiment: Inhibition of TNFalpha production in human whole blood; assay type: functional, tissue-based

T1 sequence (P78536 whole entry, the tested form may be a part): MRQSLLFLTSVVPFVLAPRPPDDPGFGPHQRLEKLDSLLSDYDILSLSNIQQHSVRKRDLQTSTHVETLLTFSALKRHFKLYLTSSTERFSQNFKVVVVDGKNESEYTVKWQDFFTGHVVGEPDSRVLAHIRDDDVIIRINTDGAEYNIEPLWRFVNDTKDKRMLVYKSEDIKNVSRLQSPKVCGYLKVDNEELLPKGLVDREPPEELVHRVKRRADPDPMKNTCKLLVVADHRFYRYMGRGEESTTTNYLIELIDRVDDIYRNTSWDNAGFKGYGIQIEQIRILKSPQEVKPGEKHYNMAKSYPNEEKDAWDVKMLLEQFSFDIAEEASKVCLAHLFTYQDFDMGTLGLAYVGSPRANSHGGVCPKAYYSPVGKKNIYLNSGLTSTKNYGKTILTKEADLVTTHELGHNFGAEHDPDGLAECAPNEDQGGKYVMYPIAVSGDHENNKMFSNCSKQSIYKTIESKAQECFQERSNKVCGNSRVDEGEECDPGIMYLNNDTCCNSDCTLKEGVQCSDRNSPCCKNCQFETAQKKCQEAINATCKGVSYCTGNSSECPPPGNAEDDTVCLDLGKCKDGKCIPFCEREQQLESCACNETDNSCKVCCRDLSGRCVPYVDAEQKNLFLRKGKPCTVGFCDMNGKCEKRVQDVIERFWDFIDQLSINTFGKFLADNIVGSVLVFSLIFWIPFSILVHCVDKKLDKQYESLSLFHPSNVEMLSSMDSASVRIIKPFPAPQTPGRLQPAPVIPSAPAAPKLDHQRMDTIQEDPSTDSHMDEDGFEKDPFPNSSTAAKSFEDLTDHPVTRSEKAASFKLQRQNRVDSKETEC
Disintegrin and metalloproteinase domain-containing protein 17 (Sus scrofa, UniProt O77636), sequence (O77636 whole entry, the tested form may be a part): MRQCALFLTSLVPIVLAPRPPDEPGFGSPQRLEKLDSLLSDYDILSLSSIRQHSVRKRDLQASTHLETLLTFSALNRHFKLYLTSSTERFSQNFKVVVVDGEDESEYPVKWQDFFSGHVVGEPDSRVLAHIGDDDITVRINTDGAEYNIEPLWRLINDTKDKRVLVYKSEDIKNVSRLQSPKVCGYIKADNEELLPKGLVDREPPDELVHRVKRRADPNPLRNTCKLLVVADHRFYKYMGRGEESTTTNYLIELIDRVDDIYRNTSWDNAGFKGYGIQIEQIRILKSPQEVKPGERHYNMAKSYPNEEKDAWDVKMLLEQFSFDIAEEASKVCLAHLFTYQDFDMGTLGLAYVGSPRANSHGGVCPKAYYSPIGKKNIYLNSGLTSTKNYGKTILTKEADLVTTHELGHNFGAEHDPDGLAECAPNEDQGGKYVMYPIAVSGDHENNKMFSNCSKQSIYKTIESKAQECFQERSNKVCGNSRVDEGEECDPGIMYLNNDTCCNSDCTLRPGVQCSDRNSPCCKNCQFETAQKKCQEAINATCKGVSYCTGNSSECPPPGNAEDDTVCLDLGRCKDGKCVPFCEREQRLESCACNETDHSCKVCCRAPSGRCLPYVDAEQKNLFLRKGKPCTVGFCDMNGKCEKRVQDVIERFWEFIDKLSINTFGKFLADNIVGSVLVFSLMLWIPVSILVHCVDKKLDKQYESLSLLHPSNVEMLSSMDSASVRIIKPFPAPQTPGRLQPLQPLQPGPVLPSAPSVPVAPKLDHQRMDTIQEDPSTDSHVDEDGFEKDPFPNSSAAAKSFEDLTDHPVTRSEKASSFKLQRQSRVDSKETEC
72 kDa type IV collagenase, sequence (P08253 whole entry): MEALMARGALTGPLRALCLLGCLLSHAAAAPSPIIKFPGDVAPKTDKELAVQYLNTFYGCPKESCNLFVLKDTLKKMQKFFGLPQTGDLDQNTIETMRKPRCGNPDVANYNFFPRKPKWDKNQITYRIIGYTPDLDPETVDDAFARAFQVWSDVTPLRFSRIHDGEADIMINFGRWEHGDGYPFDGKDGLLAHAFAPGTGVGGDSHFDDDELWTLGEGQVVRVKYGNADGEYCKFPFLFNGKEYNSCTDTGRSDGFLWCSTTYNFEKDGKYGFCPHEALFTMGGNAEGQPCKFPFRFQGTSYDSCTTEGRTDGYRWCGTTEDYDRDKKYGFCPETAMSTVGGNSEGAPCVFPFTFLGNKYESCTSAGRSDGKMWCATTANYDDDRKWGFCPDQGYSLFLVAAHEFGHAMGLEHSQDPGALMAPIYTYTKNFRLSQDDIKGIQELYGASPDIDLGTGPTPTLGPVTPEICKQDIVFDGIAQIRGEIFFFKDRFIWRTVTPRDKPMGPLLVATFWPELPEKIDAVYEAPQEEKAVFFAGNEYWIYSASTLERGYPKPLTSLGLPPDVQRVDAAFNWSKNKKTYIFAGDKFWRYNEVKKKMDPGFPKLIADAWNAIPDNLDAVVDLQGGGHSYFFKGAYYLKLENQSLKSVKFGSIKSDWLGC
Matrix metalloproteinase-9, sequence (P14780 whole entry): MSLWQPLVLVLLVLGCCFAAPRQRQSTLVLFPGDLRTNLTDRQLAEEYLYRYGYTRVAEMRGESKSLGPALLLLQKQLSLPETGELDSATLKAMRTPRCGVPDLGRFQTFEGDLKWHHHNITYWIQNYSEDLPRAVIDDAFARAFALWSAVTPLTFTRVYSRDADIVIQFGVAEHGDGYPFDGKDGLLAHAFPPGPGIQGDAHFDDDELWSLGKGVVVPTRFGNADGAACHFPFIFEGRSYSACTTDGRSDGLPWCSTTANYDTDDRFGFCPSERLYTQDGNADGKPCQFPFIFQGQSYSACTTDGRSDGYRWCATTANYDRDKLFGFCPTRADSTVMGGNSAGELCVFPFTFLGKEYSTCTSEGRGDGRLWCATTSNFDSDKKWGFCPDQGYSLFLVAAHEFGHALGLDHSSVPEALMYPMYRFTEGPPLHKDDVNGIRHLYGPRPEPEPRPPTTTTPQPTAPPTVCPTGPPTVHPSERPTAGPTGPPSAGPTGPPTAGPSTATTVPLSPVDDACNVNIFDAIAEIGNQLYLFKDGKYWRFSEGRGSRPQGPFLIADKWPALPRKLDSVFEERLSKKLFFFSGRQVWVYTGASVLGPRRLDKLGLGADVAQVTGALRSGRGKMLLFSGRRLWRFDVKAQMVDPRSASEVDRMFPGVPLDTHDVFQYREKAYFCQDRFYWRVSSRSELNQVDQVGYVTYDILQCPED

**Q.** For `CCC[C@@H]([C@@H](CC(C)C)C(=O)C[C@@H](CCCN/C(N)=N/[N+](=O)[O-])C(=O)Nc1nccs1)N(O)C=O`, which IC50 [1] is on record?
**A.** 4.3 nM

**Q.** Which results are given for `CC#CCOc1ccc(S(=O)(=O)N(C)c2c(N3CCN(C)CC3)ccc(Br)c2C(=O)NO)cc1`?
**A.** Selectivity ratio [2]: 500; IC50 [3]: 25 nM; inhibition in vivo at 50 mg/kg (Mus musculus [4]): 100%

**Q.** For `CC(C)Cc1ccc([C@]2(C)CCN([C@H](C)C(=O)NO)C2=O)cc1`, which IC50 [3] is on record?
**A.** 1000 nM

**Q.** Which IC50 [3] does the source give for `CC1(C)SCCN(S(=O)(=O)c2ccc(OCC#CCO)cc2)[C@H]1C(=O)NO` here?
**A.** 440 nM

**Q.** Which Selectivity ratio [2] does the source give for `CC#CCOc1ccc(S(=O)(=O)N2Cc3ccc(CO)cc3N(C(C)=O)CC2C(=O)NO)cc1` (stereo unspecified) here?
**A.** > 40

**Q.** Which IC50 [3] does the source give for `Cc1cc(COc2ccc(C3(C)C(=O)NC(=O)NC3=O)cc2)c2ccccc2n1` here?
**A.** 1 nM

**Q.** Which results are given for `Cc1cc(OCc2ccc(NC(=O)[C@H]3CCCC[C@@H]3C(=O)NO)cc2)c2ccccc2n1`?
**A.** IC50 [5]: > 50000 nM; IC50 [3]: 8 nM

**Q.** What does the source list for `C[C@H](C(=O)NO)N1CC[C@@](C)(c2ccc(OCc3cc(C(F)(F)F)cc(C(F)(F)F)c3)cc2)C1=O`?
**A.** Selectivity ratio [2]: > 1000; Selectivity ratio [6]: > 1000; Selectivity ratio [7]: > 1000; IC50 [3]: 2 nM

**Q.** For `CC#CCOc1ccc(S(=O)(=O)N(C)c2c(C(=O)NO)cnc3c(OC)cccc23)cc1`, which Selectivity ratio [2] is on record?
**A.** 50

**Q.** For `COc1ccc(S(=O)(=O)N(C)c2c(C)cc(Br)cc2C(=O)NO)cc1`, which IC50 (Collagenase 3) is on record?
**A.** 11 nM

**Q.** Which IC50 [3] does the source give for `C[C@H](C(=O)NO)N1CC[C@@](C)(c2ccc(Oc3ccccc3)cc2)C1=O` here?
**A.** 185 nM

**Q.** For `Cc1cc(COc2ccc(N3C(C(=O)NO)CCCS3(=O)=O)cc2)c2ccccc2n1` (stereo unspecified), which Selectivity ratio [2] is on record?
**A.** > 1000

**Q.** What about the Selectivity ratio [6] of the same molecule?
**A.** > 1000

**Q.** What about the Selectivity ratio [7] of the same molecule?
**A.** > 1000

**Q.** For `O=C(NO)[C@@H]1CC[C@H](O)CN1S(=O)(=O)c1ccc(OCc2ccccc2I)cc1`, which IC50 [3] is on record?
**A.** 110000 nM

**Q.** What does the source list for `Cc1cc(COc2ccc([C@]3(N)CCN([C@H](CC(C)C)C(=O)NO)C3=O)cc2)c2ccccc2n1`?
**A.** IC50 [5]: 90 nM; ED50 (Mus musculus [8]): 6 mg/kg; IC50 [3]: 0.2 nM; bioavailability [9]: 16%; bioavailability [10]: 54%; half-life [11]: 180 min

**Q.** For `CC1(C)SCCN(S(=O)(=O)c2ccc(Oc3ccncc3)cc2)[C@H]1C(=O)NO` [PRINOMASTAT], which IC50 [3] is on record?
**A.** 22 nM

**Q.** What does the source list for `Cc1cc(COc2ccc(S(=O)(=O)CC3C(C(=O)NO)CCN3C)cc2)c2ccccc2n1` (stereo unspecified)?
**A.** IC50 [5]: 180 nM; Selectivity ratio [2]: 2000; Selectivity ratio [6]: 2000; Selectivity ratio [7]: 2000; IC50 [3]: 1 nM

**Q.** With `CNC(=O)[C@@H](NC(=O)[C@H](c1ccc(C)cc1)[C@H](CO)C(=O)NO)C(C)(C)C` as the molecule, how does the IC50 [12] read?
**A.** 141 nM

**Q.** For `Cc1cc(COc2ccc(N3CCC([C@H](NC(=O)OC(C)(C)C)C(=O)NO)C3=O)cc2)c2ccccc2n1` (stereo partly specified), which Selectivity ratio [2] is on record?
**A.** 700

**Q.** And the Selectivity ratio [6]?
**A.** 300

**Q.** What about the Selectivity ratio [7] of the same molecule?
**A.** 300

**Q.** For `C[C@H](C(=O)NO)N1CC[C@@](C)(c2ccc(-c3ccccc3)cc2)C1=O`, which IC50 [3] is on record?
**A.** 13000 nM

**Q.** With `CNC(=O)[C@H](Cc1ccc(NC(=N)N)cc1)NC(=O)[C@H](CC(C)C)[C@H](CCCc1ccccc1)C(=O)NO` as the molecule, how does the IC50 (Interstitial collagenase) read?
**A.** 6 nM

**Q.** What about the IC50 (THP-1) of the same molecule?
**A.** 130 nM

**Q.** What about the IC50 (Collagenase 3) of the same molecule?
**A.** 0.1 nM

**Q.** For `Cc1cc(COc2ccc([C@]3(C)CCN([C@H](C)C(=O)NO)C3=O)cc2)c2ccccc2n1`, which IC50 [5] is on record?
**A.** 350 nM

**Q.** And the fraction unbound [13]?
**A.** 0.036

**Q.** Which results are given for `Cc1cc(COc2ccc(C(=O)N[C@@H]3COCC[C@@H]3C(=O)NO)cc2)c2ccccc2n1`?
**A.** IC50 [5]: 130 nM; Selectivity ratio [2]: > 30000; Selectivity ratio [7]: > 30000; IC50 [3]: < 1 nM; bioavailability [14]: 58%

**Q.** With `CNC(=O)[C@@H](NC(=O)[C@H](c1ccc(OC)cc1)[C@H](CO)C(=O)NO)C(C)(C)C` as the molecule, how does the IC50 [12] read?
**A.** 56 nM

**Q.** What does the source list for `C/C=C/C=C/C=C1/C=C(CCC(=O)NO)C(=O)OC1`?
**A.** IC50 [15]: 6 nM; IC50 [3]: 28 nM; IC50 [16]: 23 nM

**Q.** With `CCOP(=O)(N[C@@H](CC(C)C)C(=O)NO)c1ccc(OC)cc1` (stereo partly specified) as the molecule, how does the IC50 [3] read?
**A.** 76 nM

**Q.** Which IC50 (Interstitial collagenase) does the source give for `C=CCONC(=O)[C@@H]1[C@@H](C)N(C(C)=O)CCN1S(=O)(=O)c1ccc(OCc2ccc(C)cc2)cc1` here?
**A.** 1600 nM

**Q.** What about the IC50 [3] of the same molecule?
**A.** 1 nM

**Q.** What about the IC50 (Collagenase 3) of the same molecule?
**A.** 3 nM

**Q.** With `CC(C)C[C@@H](C(=O)NN(CC(C)C)S(C)(=O)=O)[C@H](C/C=C/c1ccccc1)C(=O)NO` as the molecule, how does the IC50 [3] read?
**A.** 3 nM

**Q.** With `CCC(=O)[C@@H](NC(=O)[C@H](c1ccc(OC)cc1)[C@H](CO)C(=O)NO)C(C)(C)C` as the molecule, how does the ED50 (Rattus norvegicus) read?
**A.** 1 mg/kg

**Q.** For `Cc1cc(COc2ccc(C(=O)NCCC(=O)NO)cc2)c2ccccc2n1`, which IC50 [17] is on record?
**A.** 1 nM

**Q.** Which results are given for `Cc1cc(COc2ccc(NC(=O)[C@@H]3[C@@H](C(=O)NO)CCCN3C)cc2)c2ccccc2n1`?
**A.** IC50 [5]: 20 nM; IC50 [3]: 6.2 nM

**Q.** Which IC50 [3] does the source give for `CC#CCOc1ccc([S+]([O-])C(CCCCCC)C(=O)NO)cc1` (stereo unspecified) here?
**A.** 4 nM

**Q.** For `Cc1cc(COc2ccc(C(=O)NC3(C)C(=O)NC(=O)NC3=O)cc2)c2ccccc2n1`, which IC50 [3] is on record?
**A.** 0.026 nM

**Q.** For `CC#CCOc1ccc(S(=O)(=O)CC2(C(=O)NO)CCN(S(=O)(=O)C(C)C)CC2)cc1`, which Selectivity ratio [7] is on record?
**A.** 230

**Q.** Which IC50 [3] does the source give for `C[C@H](C(=O)NO)N1CC[C@@](C)(c2ccc(OCc3ccccc3)cc2)C1=O` here?
**A.** 4 nM

**Q.** For `CC[C@H](C)[C@H](NC(=O)[C@H](CC(C)C)[C@H](C(C)C)N(O)C=O)C(=O)Nc1ccccn1`, which IC50 [1] is on record?
**A.** 40 nM

**Q.** What about the half-life [18] of the same molecule?
**A.** > 720 min

**Q.** Which inhibition in vivo at 100 mg/kg (Mus musculus [19]) does the source give for `CC#CCOc1ccc(S(=O)(=O)N(C)c2c(C(=O)NO)cnc3onc(C)c23)cc1` here?
**A.** 95%

**Q.** What does the source list for `Cc1cc(COc2ccc(N3CC[C@](C)(CC(=O)NO)C3=O)cc2)c2ccccc2n1`?
**A.** IC50 (Blood): 1570 nM; IC50 [3]: 1 nM

**Q.** With `COc1cc(COc2ccc3c(c2)NCCN(C(CCCCNS(C)(=O)=O)C(=O)NO)S3(=O)=O)cc(OC)c1` (stereo unspecified) as the molecule, how does the Ki [17] read?
**A.** 5 nM
